Data on eight compounds can be found in patent US6462038B1, “Androgen receptor modulator compounds and methods” (Ligand Pharmaceuticals, Inc., priority 1999, dated 2002).

What all share (type): cell-based
The target of test [1] is T1, ER (Homo sapiens, UniProt P03372).
T1 construct: expressed in transfected cells; host or cells: CV-1 cells
The test is described as follows: co-transfection assay, ER agonist. As for the experimental part: (§1) CV-1 cells (African green monkey kidney fibroblasts) were cultured in the presence of Dulbecco's Modified Eagle Medium (DMEM) supplemented with 10% charcoal resin-stripped fetal bovine serum (CH-FBS) then transferred to 96-well microtiter plates one day prior to transfection.
(§2) Three to four replicates were used for each sample.
(§3) After 40 hours, the cells were washed with PBS, lysed with a Triton X-100-based buffer and assayed for LUC and β-Gal activities using a luminometer or spectrophotometer, respectively. For each replicate, the normalized response (NR) was calculated as: […]

In test [2] the target is T2, PR (Homo sapiens, UniProt P06401).
T2 construct: expressed in transfected cells; host or cells: CV-1 cells
T2 sequence (P06401 1-933): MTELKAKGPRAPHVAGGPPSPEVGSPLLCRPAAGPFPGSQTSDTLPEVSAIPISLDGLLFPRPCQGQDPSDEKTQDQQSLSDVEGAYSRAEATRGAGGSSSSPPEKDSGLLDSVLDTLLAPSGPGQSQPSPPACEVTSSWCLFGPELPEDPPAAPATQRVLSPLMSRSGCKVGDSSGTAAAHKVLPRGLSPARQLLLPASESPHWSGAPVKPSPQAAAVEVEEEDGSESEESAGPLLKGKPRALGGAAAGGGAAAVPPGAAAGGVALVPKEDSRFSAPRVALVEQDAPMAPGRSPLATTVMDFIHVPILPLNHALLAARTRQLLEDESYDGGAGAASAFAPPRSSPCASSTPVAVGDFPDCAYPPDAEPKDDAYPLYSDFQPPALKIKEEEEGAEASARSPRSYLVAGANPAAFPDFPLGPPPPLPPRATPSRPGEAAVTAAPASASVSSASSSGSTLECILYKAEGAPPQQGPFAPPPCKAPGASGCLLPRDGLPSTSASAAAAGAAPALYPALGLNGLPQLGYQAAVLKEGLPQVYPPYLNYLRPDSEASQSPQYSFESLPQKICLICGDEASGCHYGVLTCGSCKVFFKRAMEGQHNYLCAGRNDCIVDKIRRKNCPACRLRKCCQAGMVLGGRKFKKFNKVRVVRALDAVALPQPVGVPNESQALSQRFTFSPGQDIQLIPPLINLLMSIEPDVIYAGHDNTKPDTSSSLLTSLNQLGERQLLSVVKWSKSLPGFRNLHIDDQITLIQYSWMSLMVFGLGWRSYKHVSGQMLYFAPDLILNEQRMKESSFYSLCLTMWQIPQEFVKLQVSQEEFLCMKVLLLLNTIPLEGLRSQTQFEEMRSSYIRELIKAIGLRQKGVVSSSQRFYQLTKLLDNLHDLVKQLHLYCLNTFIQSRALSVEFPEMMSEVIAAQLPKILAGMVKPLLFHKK
The test is described as follows: co-transfection assay, PR antagonist (in presence of progesterone). The method, then:
as §1, §2, §3

Another test deals with T3, MR (Homo sapiens, UniProt P08235).
T3 construct: expressed in transfected cells; host or cells: CV-1 cells
T3 sequence (P08235 1-984): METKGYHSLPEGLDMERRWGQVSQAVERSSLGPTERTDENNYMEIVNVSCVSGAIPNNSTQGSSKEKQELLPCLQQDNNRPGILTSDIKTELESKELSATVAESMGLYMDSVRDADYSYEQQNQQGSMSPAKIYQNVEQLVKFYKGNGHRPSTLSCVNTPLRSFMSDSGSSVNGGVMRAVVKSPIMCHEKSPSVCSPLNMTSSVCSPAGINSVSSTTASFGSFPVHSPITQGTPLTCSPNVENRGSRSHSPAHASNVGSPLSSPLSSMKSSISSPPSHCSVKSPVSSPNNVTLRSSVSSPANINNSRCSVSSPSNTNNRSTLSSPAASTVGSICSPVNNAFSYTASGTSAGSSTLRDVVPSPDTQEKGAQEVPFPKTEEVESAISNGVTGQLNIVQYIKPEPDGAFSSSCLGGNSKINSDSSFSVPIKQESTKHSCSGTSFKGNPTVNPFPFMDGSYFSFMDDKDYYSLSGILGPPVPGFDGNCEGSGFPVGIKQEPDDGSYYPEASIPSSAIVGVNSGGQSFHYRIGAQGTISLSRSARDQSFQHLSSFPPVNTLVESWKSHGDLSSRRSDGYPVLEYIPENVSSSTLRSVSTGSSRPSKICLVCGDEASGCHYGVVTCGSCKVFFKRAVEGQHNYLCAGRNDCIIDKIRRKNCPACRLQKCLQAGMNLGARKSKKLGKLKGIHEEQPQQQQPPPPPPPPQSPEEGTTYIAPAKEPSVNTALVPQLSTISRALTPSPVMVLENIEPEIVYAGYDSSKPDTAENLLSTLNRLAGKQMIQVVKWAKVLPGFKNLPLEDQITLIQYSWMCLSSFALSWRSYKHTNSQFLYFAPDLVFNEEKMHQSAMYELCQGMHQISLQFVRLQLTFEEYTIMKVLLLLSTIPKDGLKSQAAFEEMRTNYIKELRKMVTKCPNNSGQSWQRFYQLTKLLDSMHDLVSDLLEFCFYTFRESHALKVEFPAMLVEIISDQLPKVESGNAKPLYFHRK
The test can be described thus: co-transfection assay, MR antagonist. As for the experimental part: as §1, §2, §3

The target in test [3] is T2, PR. The test can be described thus: co-transfection assay, PR agonist. As for the experimental part: as §1, §2, §3
A further test addresses T4, GR (Homo sapiens, UniProt P04150).
T4 construct: expressed in transfected cells; host or cells: CV-1 cells
T4 sequence (P04150 1-777): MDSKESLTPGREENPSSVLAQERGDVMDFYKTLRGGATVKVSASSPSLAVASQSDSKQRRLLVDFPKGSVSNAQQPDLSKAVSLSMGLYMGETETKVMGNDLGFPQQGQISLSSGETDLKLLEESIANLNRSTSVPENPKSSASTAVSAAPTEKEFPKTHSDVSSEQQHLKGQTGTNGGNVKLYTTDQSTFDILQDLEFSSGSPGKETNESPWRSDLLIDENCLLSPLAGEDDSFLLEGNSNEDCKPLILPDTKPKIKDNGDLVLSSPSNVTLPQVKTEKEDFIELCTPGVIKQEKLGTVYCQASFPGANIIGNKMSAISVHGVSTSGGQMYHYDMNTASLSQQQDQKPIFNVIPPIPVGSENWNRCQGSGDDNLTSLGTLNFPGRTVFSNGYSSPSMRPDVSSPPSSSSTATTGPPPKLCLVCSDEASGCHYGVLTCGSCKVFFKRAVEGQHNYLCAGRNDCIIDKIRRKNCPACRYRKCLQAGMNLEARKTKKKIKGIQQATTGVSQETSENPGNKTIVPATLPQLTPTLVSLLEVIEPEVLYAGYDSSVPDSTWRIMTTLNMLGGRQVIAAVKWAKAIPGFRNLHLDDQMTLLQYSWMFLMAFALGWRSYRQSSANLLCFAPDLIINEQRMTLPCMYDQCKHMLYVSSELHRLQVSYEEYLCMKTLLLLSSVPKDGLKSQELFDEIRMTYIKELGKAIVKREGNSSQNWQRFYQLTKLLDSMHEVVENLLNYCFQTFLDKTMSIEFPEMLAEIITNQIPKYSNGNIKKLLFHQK
The test is described as follows: co-transfection assay, GR antagonist. As for the experimental part:
as §1, §2, §3

The target in test [4] is T1, ER. The test is described as follows: co-transfection assay, ER antagonist. The method, then: as §1, §2, §3
Test [5] deals with T5, hAR (Homo sapiens, UniProt P10275).
T5 construct: expressed in transfected cells; host or cells: CV-1 cells (African green monkey kidney fibroblasts)
T5 sequence (P10275 1-920): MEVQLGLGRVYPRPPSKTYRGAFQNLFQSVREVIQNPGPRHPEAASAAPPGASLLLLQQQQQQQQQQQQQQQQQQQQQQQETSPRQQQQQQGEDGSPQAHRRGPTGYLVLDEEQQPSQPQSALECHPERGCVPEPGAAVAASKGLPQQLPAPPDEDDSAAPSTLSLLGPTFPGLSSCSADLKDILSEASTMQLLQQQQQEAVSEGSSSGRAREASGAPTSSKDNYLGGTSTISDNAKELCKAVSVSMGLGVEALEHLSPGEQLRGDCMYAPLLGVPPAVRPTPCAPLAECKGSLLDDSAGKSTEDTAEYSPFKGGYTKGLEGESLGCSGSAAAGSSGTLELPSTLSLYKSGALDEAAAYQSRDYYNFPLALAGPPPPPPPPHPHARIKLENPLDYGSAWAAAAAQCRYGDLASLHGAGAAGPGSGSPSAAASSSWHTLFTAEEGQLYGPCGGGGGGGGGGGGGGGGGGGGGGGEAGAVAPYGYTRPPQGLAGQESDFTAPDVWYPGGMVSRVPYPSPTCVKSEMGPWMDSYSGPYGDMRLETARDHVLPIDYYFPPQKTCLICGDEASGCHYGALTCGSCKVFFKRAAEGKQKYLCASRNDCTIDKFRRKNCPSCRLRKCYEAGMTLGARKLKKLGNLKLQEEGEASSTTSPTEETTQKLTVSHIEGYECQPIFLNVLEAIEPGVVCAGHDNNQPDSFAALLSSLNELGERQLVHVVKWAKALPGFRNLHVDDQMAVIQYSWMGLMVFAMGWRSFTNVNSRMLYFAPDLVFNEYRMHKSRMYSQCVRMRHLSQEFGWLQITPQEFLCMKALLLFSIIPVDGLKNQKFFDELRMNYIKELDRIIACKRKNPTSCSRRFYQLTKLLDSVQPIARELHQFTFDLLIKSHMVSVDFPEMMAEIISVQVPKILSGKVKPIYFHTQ
The test can be described thus: co-transfection assay, AR agonist, CV-1 cells. The following applies: for AR Agonist CV-1 Cells Efficacy (%): relative to maximum LUC production by reference agonist.

The target in test [6] is T5, hAR. The test is described as follows: co-transfection assay, AR antagonist (in presence of DHT), CV-1 cells. The following applies: for AR Antagonist CV-1 Cells Efficacy (%): hAR in CV-1 cells, maximal inhibition, DHT at EC50.

Structures are written as SMILES. Read-outs that look alike come from different tables or passages of the source. Some results are limits rather than exact numbers.

T1 sequence (P03372 whole entry): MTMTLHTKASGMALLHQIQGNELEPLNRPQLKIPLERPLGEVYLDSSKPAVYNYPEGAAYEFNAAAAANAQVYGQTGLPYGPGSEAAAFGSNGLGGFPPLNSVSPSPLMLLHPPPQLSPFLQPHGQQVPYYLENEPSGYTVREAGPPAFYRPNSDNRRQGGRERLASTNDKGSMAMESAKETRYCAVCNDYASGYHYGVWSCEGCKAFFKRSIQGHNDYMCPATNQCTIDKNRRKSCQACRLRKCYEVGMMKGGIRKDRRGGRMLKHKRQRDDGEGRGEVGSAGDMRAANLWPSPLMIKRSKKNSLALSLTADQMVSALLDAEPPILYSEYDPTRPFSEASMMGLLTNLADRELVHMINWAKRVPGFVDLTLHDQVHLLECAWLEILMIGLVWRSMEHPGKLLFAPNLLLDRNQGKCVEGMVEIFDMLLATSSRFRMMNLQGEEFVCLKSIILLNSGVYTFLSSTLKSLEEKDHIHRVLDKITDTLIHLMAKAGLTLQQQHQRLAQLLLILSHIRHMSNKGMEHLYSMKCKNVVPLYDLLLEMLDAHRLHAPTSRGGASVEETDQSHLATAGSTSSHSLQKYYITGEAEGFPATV

As for `O=c1cc(C(F)(F)F)c2cc3c(cc2[nH]1)OCCN3CC1CC1` [Compound 121, 1-Cyclopropylmethyl-1,2,3,6-tetrahydro-9-(trifluoromethyl)-7H-[1,4]oxazino[3,2-g]quinolin-7-one], the EC50 on ER [1] and on PR [3] was above 10 µM throughout. Moreover, the IC50 on PR [2] is 0.415 µM; on MR it was 2.57 µM; against GR it was 1.05 µM; against ER [4], above 10 µM.

Regarding `CC(C)(O)C(=O)Nc1ccc([N+](=O)[O-])c(C(F)(F)F)c1` [Flut, 2-hydroxyflutamide, reference compound], on ER [1] (Table 2, read-out: ER Potency Agon), the EC50 is above 10 µM. Also, the IC50 on ER [4] (Table 2, read-out: ER Potency Antag) is above 10 µM.

In the case of `CN1CCOc2cc3[nH]c(=O)cc(C(F)(F)F)c3cc21` [Compound 101, 1,2,3,6-Tetrahydro-1-methyl-9-(trifluoromethyl)-7H-[1,4]oxazino[3,2-g]quinolin-7-one], the EC50 on ER [1] and on PR [3] was above 10 µM in each case. The IC50 was above 10 µM at PR [2], above 10 µM at MR, 6.5 µM against GR and above 10 µM against ER [4].

With `CCN1CCOc2cc3[nH]c(=O)cc(C(F)(F)F)c3cc21` [Compound 103, 1-Ethyl-1,2,3,6-tetrahydro-9-(trifluoromethyl)-7H-[1,4]oxazino[3,2-g]quinolin-7-one], the EC50 at ER [1] and on PR [3] was above 10 µM throughout. Moreover, the IC50 at PR [2] is 4.5 µM; on MR it was above 10 µM; against GR, above 10 µM; at ER [4], above 10 µM.

`C[C@]1(O)CC[C@H]2[C@@H]3CCC4=CC(=O)CC[C@]4(C)[C@@]3(F)[C@@H](O)C[C@@]21C` [Fluox, fluoxymesterone]: the IC50 turned out to be 0.224 µM on PR [2], 0.193 µM against MR and 0.263 µM on GR. Further, the EC50 on PR [3] worked out at 1.21 µM.

With `CC1COc2cc3[nH]c(=O)cc(C(F)(F)F)c3cc2N1CC(F)(F)F` (racemic) [Compound 123, (±)-1,2,3,6-Tetrahydro-2-methyl-1-(2,2,2-trifluoroethyl)-9-(trifluoromethyl)-7H-[1,4]oxazino[3,2-g]quinolin-7-one], the EC50 at hAR [5] (AR Agonist CV-1 Cells Potency (nM), hAR in CV-1 cells) was 3.4 nM; at hAR [5] (AR Potency Agon (nM), Table 2) it was 3.4 nM; on ER [1] it was above 10 µM; at PR [3], above 10 µM. In addition, the “AR Agonist CV-1 Cells Efficacy (%)” value at hAR [5] (hAR in CV-1 cells) is 91%. Also, the IC50 at PR [2] was 2.47 µM; at GR, 3.16 µM; on hAR [6] it was above 10 µM; at hAR [6] (read-out: AR Potency Antag, Table 2), above 10 µM; on ER [4] it was above 10 µM. Besides, at hAR [6], the “AR Antagonist CV-1 Cells Efficacy (%)” value is “na (na = not active (i.e. efficacy of < 20 and potency of > 10,000 nM for the cotransfection assay, and Ki > 1000 nM for the binding assay))”.

In the case of `CC1CN(CC(F)(F)F)c2cc3c(C(F)(F)F)cc(=O)[nH]c3cc2O1` (racemic) [Compound 114, (±)-1,2,3,6-Tetrahydro-3-methyl-1-(2,2,2-trifluoroethyl)-9-(trifluoromethyl)-7H-[1,4]oxazino[3,2-g]quinolin-7-one], the EC50 at ER [1] and on PR [3] was above 10 µM throughout. Further, the IC50 at PR [2], on MR, against GR and at ER [4] was above 10 µM throughout.

On to `CCC1COc2cc3[nH]c(=O)cc(C(F)(F)F)c3cc2N1CC(F)(F)F` (racemic) [Compound 145, (±)-2-Ethyl-1,2,3,6-tetrahydro-1-(2,2,2-trifluoroethyl)-9-(trifluoromethyl)-7H-[1,4]oxazino[3,2-g]quinolin-7-one], for which, on hAR [5] (hAR in CV-1 cells), the “AR Agonist CV-1 Cells Efficacy (%)” value is listed as 69%. In addition, on hAR [6], the “AR Antagonist CV-1 Cells Efficacy (%)” value is 30%.
